{"source": "patent US6660910B1", "about": "“Selection marker” (Syngenta Mogen B.V., priority 1997, dated 2003)", "key": {"[1]": {"tested_on": "root segments of Arabidopsis thaliana cv. C24", "assay": "Arabidopsis root transformation with selection on cyanamide or kanamycin", "format": "cell-based", "settings": "for Percentage of GUS expressing plants (% of plants staining blue): treatment kanamycin 50 mg/litre; for % Shoots rooting / Nr. of plants (shoots developed into plants and able to root): selection kanamycin 50 mg/litre, rooting medium 25 mg/litre Kanamycin", "experimental": "Described below is the method used for transformation of root segments of Arabidopsis thaliana cv. C24 using Agrobacterium tumefaciens. The binary vectors for this transformation method are identical to those described above.\nSix mg of Arabidopsis seeds were germinated in a flask containing liquid Germination Medium (GM) under 16 h light period (1700 lux) at 24° C. and a 8 h dark period at 21° C. at 80 rpm. (The contents of various media can be found in Table 4). Roots of 9 days old seedlings were isolated in a sterile petridish and collected in a drop of Germination Medium (GM). Roots were cut in segments of approximately 3-5 mm and approximately 100 explants were spread evenly on a nylon membrane (O 8 cm) which was placed on plates containing Callus Inducing Medium (CIM). The plates were incubated 3 days under the same conditions as described above.\nThe Agrobacterium strain used in this study harbored a rifampicin selection marker in a C 58 chromosomal background. The construction of the helper strain MOG101 is described by Hood et al. (1993).\nAgrobacteria were grown overnight in LB medium with antibiotics (rifampicin 20 mg/l, kanamycin 100 mg/l). The overnight culture was diluted 1:10 in LB without antibiotics and grown for approximately 3 hours. Bacterial suspensions were centrifuged at 1600×g for 15 minutes at room temperature. Bacteria were resuspended in GM and adjusted to OD600=0.1 and used for cocultivation.\nThe membrane containing approximately 100 explants was incubated for 2 minutes with the Agrobacterium suspension and dried on sterile filter paper to remove excess of bacteria. The membrane with explants are cultured for 48 h on CIM plates. After rinsing the membrane and explants with liquid GM these were incubated on Shoot Induction Medium (SIM) plates containing several concentrations of cyanamide or kanamycin. After 5 days the membrane with the explants was transferred to the same medium (SIM) for subculture. The second subculture was after 2 weeks. Approximately four weeks after cocultivation 60 shoots per cyanamide concentration were excised and placed on plates with Shoot Elongation Medium (SEM) containing 30 mg/l cyanamide. Shoots which were able to root are tested on their transgenic character by testing leaflets and flowers for expression of the gus gene using a histochemical GUS assay.\nThree experiments were performed. Shoots obtained from Exp. 98-8 and 98-11 were transferred to rooting medium (SEM) containing 30 mg/litre cyanamide. Shoots obtained from Exp. 98-13 were transferred to rooting medium containing the same concentration as the selection medium (SIM), for results see Table 4a. The shoots obtained from the kanamycin selection (50 mg/litre) were transferred to rooting medium containing 25 mg/litre Kanamycin."}, "[2]": {"tested_on": "cotyledons of Lycopersicon esculentum cv. Money Maker", "assay": "Transformation of tomato cotyledon explants with selection on cyanamide or kanamycin", "format": "cell-based", "settings": "Kanamycin 100 mg/l during regeneration; for No. of rooting shoots: rooting medium 30 mg/l kanamycin", "experimental": "Described below is the method used for transformation of cotyledons of Lycopersicon esculentum cv. Money Maker using Agrobacterium tumefaciens. The binary vectors and Agrobacteria strains for this transformation method are identical to those described above. Tomato seedlings were germinated on Germination Medium (GEM) under a 16 h light period (1700 lux) at 24° C. and a 8 h dark period at 21° C. (The contents of the various media can be found in Table 4). Cotyledon explants of 5 to 7 day old seedlings were cut on sterile filter paper soaked with Washing Medium (WAM) and placed on plates containing Cocultivation Medium (COM). The plates, each containing approximately 50 explants, were incubated overnight under the same conditions as described above.\nThe pre incubated explants were carefully submerged in the Agrobacterium inoculum for 20 minutes.\nThe explants were then blotted dry on sterile filter paper and incubated for 48 h on the second set of Cocultivation plates. In procession the explants were incubated for 72 h on plates containing Postcultivation Medium (POM) after which the explants were transferred to Shoot inducing Medium (SIM) containing several concentrations of cyanamide or kanamycin. Every three weeks the explants were subcultured on the same medium. After approximately 8-12 weeks shoots were excised and placed on Root inducing Medium (RIM). Shoots that were able to root were then transferred to Root inducing Medium containing 50 mg/l cyanamide or 30 mg/l kanamycin. Simultaneously leaflets of the rooted shoots were tested for expression of the gus gene in a histochemical GUS assay."}, "[3]": {"settings": "pMOG410 (gus-nptII), 30 inoculated explants"}, "[4]": {"settings": "pMOG874 (cah-nptII), 35 inoculated explants"}, "[5]": {"settings": "pMOG1156 (gus-nptII-cah), 30 inoculated explants"}}, "data": [{"smiles": "NC[C@H]1O[C@H](O[C@H]2[C@H](O)[C@@H](O[C@H]3O[C@H](CO)[C@@H](O)[C@H](N)[C@H]3O)[C@H](N)C[C@@H]2N)[C@H](O)[C@@H](O)[C@@H]1O", "note": "[Kanamycin]", "values": [{"measurement": "Percentage of GUS expressing plants (% of plants staining blue)", "setting": "[1]; pMOG 410, shoots rooted on Kanamycin 25 mg/litre", "result": "100^2%"}, {"measurement": "% Shoots rooting", "setting": "[1]; pMOG 1156, Experiment 98-8", "result": 46.8, "unit": "%"}, {"measurement": "Nr. of plants (shoots developed into plants and able to root)", "setting": "[1]; pMOG 1156, Experiment 98-8", "result": 29}, {"measurement": "% Shoots rooting", "setting": "[1]; pMOG 1156, Experiment 98-11", "result": 47.5, "unit": "%"}, {"measurement": "Nr. of plants (shoots developed into plants and able to root)", "setting": "[1]; pMOG 1156, Experiment 98-11", "result": 19}, {"measurement": "% Shoots rooting", "setting": "[1]; pMOG 1156, Experiment 98-13", "result": 20.6, "unit": "%"}, {"measurement": "Nr. of plants (shoots developed into plants and able to root)", "setting": "[1]; pMOG 1156, Experiment 98-13", "result": 14}, {"measurement": "Percentage of GUS expressing plants (% of plants staining blue)", "setting": "[1]; pMOG 1156, column headed C30 in rooting medium", "result": "82-92%"}, {"measurement": "No. of excised shoots", "setting": "[2]; [3]", "result": 4}, {"measurement": "No. of gus + shoots", "setting": "[2]; [3]", "result": 3}, {"measurement": "No. of rooting shoots", "setting": "[2]; [3]", "result": 3}, {"measurement": "No. of excised shoots", "setting": "[2]; [4]", "result": 4}, {"measurement": "No. of rooting shoots", "setting": "[2]; [4]", "result": 1}, {"measurement": "No. of excised shoots", "setting": "[2]; [5]", "result": 5}, {"measurement": "No. of gus + shoots", "setting": "[2]; [5]", "result": 4}, {"measurement": "No. of rooting shoots", "setting": "[2]; [5]", "result": 3}]}]}
